The values below are quoted from earlier work in patent publication US12109217B2, “Bioactive agents included in functionalized starch having a single helix V-structure” (B-ORGANIC FILMS CORP., priority 2014, dated 2024).

Structures are written as SMILES. Where two headings read alike, the source gives them in different places.

The conditions of series [1]: in vivo.

Consider `C[C@@H]1CC[C@H]2[C@@H](C)C(=O)O[C@@H]3O[C@@]4(C)CC[C@@H]1[C@]32OO4` [Artemisinin], for which the oral bioavailability result in series [1] was “about 30%”. For `COC(=O)[C@H](c1ccccc1Cl)N1CCc2sccc2C1` [Clopidogrel bisulfate], the solubility in water entry (neutral pH) is given as “insoluble in water”. Also, for the setting “pH 1-2 (similar to gastric pH)”, the solubility entry is recorded as “freely soluble”. As for `CC(=O)O[C@H]1C(=O)[C@@]2(C)[C@H]([C@H](OC(=O)c3ccccc3)[C@]3(O)C[C@H](OC(=O)[C@H](O)[C@@H](NC(=O)c4ccccc4)c4ccccc4)C(C)=C1C3(C)C)[C@]1(OC(C)=O)CO[C@@H]1C[C@@H]2O` [Paclitaxel], the solubility entry (water / aqueous medium (and oil where stated)) is reported as “poorly soluble in aqueous medium”.
